Measurements published in patent publication US10682388B2, “Targeting of PELP1 in cancer therapy” (THE BOARD OF REGENTS OF THE UNIVERSITY OF TEXAS SYSTEM, priority 2014, dated 2020).
Entries after “also recorded” stand apart in the source; their conditions may differ.

Tests used:
[1] = test system: ZR75 cells; experiment: Estrogen-mediated growth, MTT assay; assay type: cell-based, Human; conditions: ZR75 cells stimulated with estradiol, FIG. 4C
Method: FIGS. 4A-E. (FIG. 4A) ZR75vec, ZR75PELP1, MCF7vec and MCF7PELP1 cells were treated in triplicate with TAT, PIP1 or PIP1 deletions (Del1, Del2, Del3) at 10 uM every 3 days and proliferation was measured by MTT assay on day 7. (FIG. 4B) ZRPELP1 cells were transfected with ERE-luciferase and treated with TAT, PIP1, or PIP2 for 24 hours and with estradiol for 12 hours. Relative luciferase activity was measured in triplicate. (FIG. 4C) ZR75 cells were grown in 5% DCC media for 72 hours, treated with TAT or PIP1 every 3 days, and treated with estradiol 10^−7 M for 12 hours. Proliferation was measured in triplicate on day 7 by MTT assay at 595 nm. (FIG. 4D) MCF7-Letrozole resistant cells were grown in 5% DCC media for 72 hours, treated with TAT, PIP1 or PIP2 every 3 days, and letrozole or estradiol 10^−7 M for 12 hours. Proliferation was measured in triplicate on day 7 by MTT assay at 595 nm. […] Proliferation was measured in triplicate on day 7 by MTT assay at 595 nm.
Cell proliferation rates were measured by using MTT Cell Viability Assay in 96-well plates. […] After an overnight incubation, cells were treated with varying concentrations of the peptides for 3-7 days and growth inhibition was determined by using traditional MTT assay (Sigma) following manufacturer's instructions.

[2] = test system: MCF7-TamR and MCF7-LTLT cells; experiment: Therapy resistance assays, MTT; assay type: cell-based, Human; conditions: FIGS. 4D-E, 11
Method: FIGS. 4A-E. (FIG. 4A) ZR75vec, ZR75PELP1, MCF7vec and MCF7PELP1 cells were treated in triplicate with TAT, PIP1 or PIP1 deletions (Del1, Del2, Del3) at 10 uM every 3 days and proliferation was measured by MTT assay on day 7. (FIG. 4B) ZRPELP1 cells were transfected with ERE-luciferase and treated with TAT, PIP1, or PIP2 for 24 hours and with estradiol for 12 hours. Relative luciferase activity was measured in triplicate. (FIG. 4C) ZR75 cells were grown in 5% DCC media for 72 hours, treated with TAT or PIP1 every 3 days, and treated with estradiol 10^−7 M for 12 hours. Proliferation was measured in triplicate on day 7 by MTT assay at 595 nm. (FIG. 4D) MCF7-Letrozole resistant cells were grown in 5% DCC media for 72 hours, treated with TAT, PIP1 or PIP2 every 3 days, and letrozole or estradiol 10^−7 M for 12 hours. Proliferation was measured in triplicate on day 7 by MTT assay at 595 nm. (FIG. 4E) MCF7-Tamoxiefn resistant cells were grown in 5% DCC media for 72 hours, treated with TAT, PIP1 or PIP2 every 3 days, and tamoxifen or estradiol 10^−7 M for 12 hours. Proliferation was measured in triplicate on day 7 by MTT assay at 595 nm.
FIG. 11. Cell proliferation assay: letrozole-resistant MCF-7-LTLT cells and Tamoxifen resistant MCF7-Tam cells were treated with TAT, PIP1, or PIP2 (10 μM)+/− letrozole or Tamoxifen.
Tamoxifen (Tam) therapy resistant MCF7-TamR and letrozole resistant MCF7-LTLT cells were cultured in tamoxifen or letrozole (10^-7M) containing media in the presence or absence of peptides and proliferation was measured by MTT assay (Sigma) following manufacturer's instructions.

[3] = test system: G9a target genes Pecam1, Serac1, Rb1 and Bmi1 in ZR75 cells; experiment: qRTPCR of G9a target genes; assay type: cell-based, Human; conditions: 10 μM, FIG. 3B
Method: FIGS. 3A-F. (FIG. 3A) Recombinant histones were incubated with G9a with increasing concentrations of PELP1, incubated 1 hour at 30° C. and western blot analysis was performed for expression of H3K9me2. Total histone H3 is shown as the control. (FIG. 3B) qRTPCR analysis of ZR75 and ZRPELP1KD cells treated with 10 μM TAT or PIP1 for 24 hours. G9a target genes PECAM1, SERAC1, RB1 and BMI1 expression is shown as—fold change over actin. (FIG. […]) ChIP-sequencing location analysis of H3K9me2 in control ZR75 model cells. (FIG. 3D) ChIP-sequencing location analysis of H3K9me2 in stable ZR75PELP1KD cells. (FIG. 3E) Ingenuity pathway analysis of genes from binding peaks of ChIP-sequencing of H3K9me2 in stable PELP1 ZR75PELP1KD cells. (FIG. 3F) Image from Integrated Genome Viewer of ChIP-sequencing of H3K9me2 in ZR75 and ZRPELP1KD cells.
Model cells ZR75 and ZRPELP1KD were grown in 8% DCC media for 72 hours and treated with TAT or PIP1 (10 μM) for […]. RNA was isolated by Trizol and cDNA was synthesized by Superscript III First Strand reverse transcriptase (Invitrogen). qPCR was performed in triplicate by SyberGreen using an Illumina Eco Real-Time PCR System. Gene expression was normalized to actin.

[4] = target: PELP1 (Homo sapiens, UniProt Q8IZL8); experiment: Peptide pull-down assay, biotin-tagged peptides on avidin beads with nuclear lysates from ZR75 cells; assay type: binding; conditions: one hour, FIG. 1D
PELP1, sequence (Q8IZL8 whole entry, the tested form may be a part): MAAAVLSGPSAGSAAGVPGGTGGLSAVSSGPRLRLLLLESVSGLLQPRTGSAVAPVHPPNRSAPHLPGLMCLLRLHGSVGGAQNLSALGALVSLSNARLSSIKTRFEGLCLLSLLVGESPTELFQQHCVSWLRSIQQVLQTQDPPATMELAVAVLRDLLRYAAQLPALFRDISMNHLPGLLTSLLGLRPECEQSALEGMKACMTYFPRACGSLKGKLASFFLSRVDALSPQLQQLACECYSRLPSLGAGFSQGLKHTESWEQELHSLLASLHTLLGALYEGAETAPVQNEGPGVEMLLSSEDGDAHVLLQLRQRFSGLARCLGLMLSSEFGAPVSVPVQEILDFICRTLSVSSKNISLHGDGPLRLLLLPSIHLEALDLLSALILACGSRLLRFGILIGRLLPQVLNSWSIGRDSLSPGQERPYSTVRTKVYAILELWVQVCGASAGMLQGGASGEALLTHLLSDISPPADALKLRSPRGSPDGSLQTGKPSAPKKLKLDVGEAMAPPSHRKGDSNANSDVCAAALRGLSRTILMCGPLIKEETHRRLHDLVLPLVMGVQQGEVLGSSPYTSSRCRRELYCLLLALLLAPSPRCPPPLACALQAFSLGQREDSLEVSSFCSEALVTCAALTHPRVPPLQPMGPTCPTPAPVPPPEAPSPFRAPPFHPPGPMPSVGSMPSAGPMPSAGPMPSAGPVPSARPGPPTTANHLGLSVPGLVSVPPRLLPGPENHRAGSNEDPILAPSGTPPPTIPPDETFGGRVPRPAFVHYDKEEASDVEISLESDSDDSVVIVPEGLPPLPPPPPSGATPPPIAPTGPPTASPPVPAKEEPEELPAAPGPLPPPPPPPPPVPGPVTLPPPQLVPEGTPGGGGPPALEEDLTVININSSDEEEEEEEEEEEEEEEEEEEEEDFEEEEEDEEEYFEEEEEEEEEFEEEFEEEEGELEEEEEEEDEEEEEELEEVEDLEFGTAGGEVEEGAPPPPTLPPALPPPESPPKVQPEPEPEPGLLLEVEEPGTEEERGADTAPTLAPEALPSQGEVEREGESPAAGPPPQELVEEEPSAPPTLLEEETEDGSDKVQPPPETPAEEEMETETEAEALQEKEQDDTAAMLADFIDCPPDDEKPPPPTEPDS
Method: FIGS. 1A-D. (FIG. 1A) Diagram for yeast two hybrid screen to identify PELP1 binding peptides. Four regions of PELP1 were tagged with the binding domain and a library of 10^6 random peptides (Clontech) were bound to an activation domain. The number of positive colonies per region of PELP1 are shown in the graph. (FIG. 1B) A proliferation assay was performed with […]1 cells plated in a 96 well plate, treated with peptide every 3 days and absorbance was measured at 7 days. (FIG. 1C) ZR75 were plated in a 6-well plate on coverslips in 8% RPMI and treated with 10 uM FITC labeled peptide for 30, 60, or 120 minutes. They were then fixed with pararformaldehyde, stained for PELP1 (red) and DAPI (blue), and imaged by confocal microscopy to monitor intracellular delivery. (FIG. 1D) ZR75 cells were starved of estrogen for 72 hours and treated with estradiol 10^-7 M for 12 hours. Nuclear lysate was incubated with biotin-tagged peptides bound to avidin beads for one hour. Beads were washed, run on SDS-PAGE gel and probed for PELP1 expression. Input of nuclear lysate is shown as control. Peptides were linked to EZ-Link NHS-Biotin (Thermo Scientific) per manutfacturer's protocol. […] Beads were washed 3× with IP buffer (20 mM HEPES pH 7.9, 20% glycerol, 0.1% triton-x, 100 mM KCl), eluted with SDS-dye, and PELP1 expression was determined by western blotting. […]

[5] = test system: T98G, LN229 and U251 glioma cells and patient-derived primary GBM cells; experiment: MTT proliferation assay, glioma cell lines and primary GBM cells; assay type: cell-based; conditions: FIGS. 15A-D
Method: FIGS. 15A-D. PIPs inhibit proliferation of glioma cells. (FIGS. 15A-B) T98G, LN229 and U251 glioma cells were treated with vehicle or varying concentration of PIP1 or PIP3, and proliferation was measured by using the MTT assay. (FIGS. 15C-D) Patient-derived primary GBM cells were treated with PIP1 or PIP3 and proliferation was measured using the MTT assay. Cell proliferation rates were measured by using MTT Cell Viability Assay in 96-well plates. Model cells were seeded in 96-well plates (1×10^3 cells/well) in DMEM or RPMI medium containing 10% serum. After an overnight incubation, cells were treated with varying concentrations of the peptides for 3-7 days and growth inhibition was determined by using traditional MTT assay (Sigma) following manufacturer's instructions.

Sequence: GRKKRRQRRRGGMVEFRWSCPGRRKAKA [PIP1]
- estrogen-mediated growth [1]: inhibition of the estrogen-mediated growth
- proliferation of therapy resistant cell lines ([2]; MCF7-TamR and MCF7-LTLT, 10 μM): inhibited the proliferation; also recorded: efficiently reduce the growth of therapy resistant cells
- combined effect on proliferation with hormonal therapy (tamoxifen, letrozole) ([2]; therapy resistant cells): synergistic inhibition of proliferation with tamoxifen
- expression of G9a target genes Pecam1, Serac1, Rb1 and Bmi1 [3]: decrease in the expression G9a upregulated target genes
- affinity to bind to PELP1 in peptide pull-down [4]: higher affinity to bind to PELP1 than PIP2
- concentration of potent activity on glioma proliferation [5]: 50 µM
- proliferation of glioma cell lines and primary GBM cells ([5]; varying concentration): significantly reduced their proliferation in a dose-dependent manner
